These results are taken from patent US20040225172A1, “Use of ionic liquids to separate olefins, diolefins and aromatics” (NOVA Chemicals (International) S.A., priority 2002, published 2004).

Structures are written as SMILES. Like-named read-outs stand apart in the source and are kept apart here.

Data set [1] in a line: C5 hydrocarbon solubility in ionic liquid (volume change of hydrocarbon phase). The procedure: The locations of all meniscuses were then recorded. […] The testing was conducted at ambient temperature.
The nature of data set [2]: Cyclo-C8 hydrocarbon solubility in ionic liquids.
The conditions of data set [3]: ambient temperature; for Propane absorbed (mol C3H8/L absorbent) / Propylene absorbed (mol C3H6/L absorbent): equilibrium. The procedure:
The testing apparatus consists of two sample cylinders (one 1000 cc cylinder and one 150 cc cylinder) connected by ⅛-inch tubing with valves allowing for isolation of each cylinder. A digital pressure gauge indicates the larger cylinder pressure and the pressure of the system when the cylinders are not isolated.
To measure absorption, 50 mL of bmim^+ BF4^− absorbent was loaded into the smaller cylinder and the larger cylinder was pressurized with the hydrocarbon gas. The amount of gas absorbed by the sample of bmim^+BF4^− is proportional to the pressure drop that occurs when the sample is exposed to the test gas, and can be calculated knowing the internal volume of the closed system.
The sample was then exposed to the gas in the large 1000 cc cylinder as the valve separating the cylinders was opened. The initial pressure drop was recorded. The sample was stirred via magnetic stirrer. When the system came to equilibrium (no pressure changed for over 1 hour) the final absorption pressure was recorded and the cylinders were once again separated. This procedure could be repeated for different absorption pressures. Experiments were conducted at ambient temperature.
Between experimental runs, the absorbent was degassed by bubbling a nitrogen entrainment gas through the absorbent for 2 to 3 hours.

The mark [4] stands for this setting: in bmim^+ BF4^− ionic liquid, ambient temperature.

`CC=C(C)C` [2-Methyl-2-Butene, 2-methyl-2-butene]: in data set [1] (setting [4]), the “Selectivity over Isopentane” value came out at 10.6 and the “Solubility (mol C5/L ionic liquid)” value turned out to be 0.360 mol C5/L ionic liquid.
As to `CCc1ccccc1` [Ethylbenzene, ethylbenzene], the “Solubility in mbpy^+ BF4^− (mol C8/L ionic liquid)” value in data set [2] was 0.551 mol C8/L ionic liquid.
Consider `CCC(C)C` [Isopentane, isopentane], for which, in data set [1], the “Solubility (mol C5/L ionic liquid)” value is listed as 0.034 mol C5/L ionic liquid.
`C=CC(=C)C` [Isoprene, isoprene]: in data set [1] (setting [4]), the “Selectivity over Isopentane” value was 18.0 and the “Solubility (mol C5/L ionic liquid)” value is reported as 0.611 mol C5/L ionic liquid.
Take `CCCCn1cc[n+](C)c1.F[B-](F)(F)F` [bmim^+ BF4^−, 1-butyl-3-methylimidazolium tetrafluoroborate]: in data set [3] (50.0 psig), the “C3H6:C3H8 Selectivity” value amounted to 3.55, the “Propane absorbed (mol C3H8/L absorbent)” value is 0.011 mol C3H8/L absorbent and the “Propylene absorbed (mol C3H6/L absorbent)” value was determined as 0.039 mol C3H6/L absorbent. Also, in data set [3] (72.6 psig), the “C3H6:C3H8 Selectivity” value stood at 9.92, the “Propane absorbed (mol C3H8/L absorbent)” value is listed as 0.012 mol C3H8/L absorbent and the “Propylene absorbed (mol C3H6/L absorbent)” value turned out to be 0.119 mol C3H6/L absorbent.
